Experimental data taken from US20240150356A1, “Pyrimidine amide compounds and use thereof” (ALPHALA CO., LTD., priority 2019, published 2024).
Like-named read-outs stand apart in the source and are kept apart here.

Tested on: Hep3B cells (hepatocellular carcinoma cell line)
Assay: In vitro MTS cell viability assay (NCI-60 methodology), Hep3B
Format: cell-based
Conditions: Homo sapiens, 48 h, 2 days drug incubation, 50% reduction vs time zero, read-out: Hep3B LC50
Method: The cell viability measurement is based on the NCI-60 screening methodology (Nat. Rev. Cancer 6, 813-823, 2006). Briefly, cells are inoculated into 96-well plates at the optimal plating density. After 24 h, one of the two plates for Hep3B cell line is processed to determine a time zero cell viability (Tz) by MTS assay (Promega). Compounds are added over a 2-fold serial dilution to provide a total five drug concentrations plus DMSO control. Plates are incubated for a further 2 days, then measured cell viability by MTS assay [control growth (C) and test growth in the presence of drug at the five concentration levels (Ti)]. The LC50 is calculated from [(Ti−Tz)/Tz]×100=−50, which is the drug concentration resulting in a 50% reduction at the end of the drug treatment as compared to that at the beginning.
The compounds prepared in Tables 1-10 were tested in three in vitro assays, and the results are shown in Tables 1-10 for Hep3B and Table 11 for SW480 and NCI-H460 shown below. Herein, Hep3B refers to hepatocellular carcinoma cell line, SW480 refers to colon adenocarcinoma cell line, and NCI-H460 refers to human lung cancer cell line.
Shown in following Tables 1 to 10 are the structures and in vitro activities of exemplary compounds of formula (I).

Compound `Cc1csc2c(NC(=O)c3ccc([N+](=O)[O-])s3)nc(-c3cc(C(F)(F)F)cc(C(F)(F)F)c3)nc12` [Compound 4-6, N-(2-(3,5-bis(trifluoromethyl)phenyl)-7-methylthieno[3,2-d]pyrimidin-4-yl)-5-nitrothiophene-2-carboxamide] has an LC50 (Table 4, MTS) of 420 nM.

In the case of `CC(C)(C)c1ccc(-n2ncc3c(NC(=O)c4ccc([N+](=O)[O-])s4)nc(OCCN4CCOCC4)nc32)cc1` [Compound 6-60, N-(1-(4-(tert-butyl)phenyl)-6-(2-morpholinoethoxy)-1H-pyrazolo[3,4-d]pyrimidin-4-yl)-5-nitrothiophene-2-carboxamide], the LC50 (Table 6, MTS) was 890 nM.

Compound `O=C(Nc1nc(-c2ccccc2)nc2c1cnn2-c1ccccc1)c1ccc([N+](=O)[O-])s1` [Compound 5-23, N-(1,6-diphenyl-1H-pyrazolo[3,4-d]pyrimidin-4-yl)-5-nitrothiophene-2-carboxamide] has an LC50 (Table 5, MTS) of 430 nM.

In the case of `CC1(C)CC=C(c2nc(NC(=O)c3ccc([N+](=O)[O-])s3)c3cnn(-c4ccc(F)cc4)c3n2)CC1` [Compound 6-144, N-(6-(4,4-dimethylcyclohex-1-en-1-yl)-1-(4-fluorophenyl)-1H-pyrazolo[3,4-d]pyrimidin-4-yl)-5-nitrothiophene-2-carboxamide], the LC50 (Table 6, MTS) was 550 nM.

`COc1ccc(-n2ncc3c(NC(=O)c4ccc([N+](=O)[O-])s4)nc(-c4ccc5c(c4)OCO5)nc32)cc1` [Compound 6-24, N-(6-(benzo[d][1,3]dioxol-5-yl)-1-(4-methoxyphenyl)-1H-pyrazolo[3,4-d]pyrimidin-4-yl)-5-nitrothiophene-2-carboxamide] showed an LC50 (Table 6, MTS) of 190 nM.

`O=C(Nc1nc(-c2ccc(OCCO)nc2)nc2c1cnn2-c1ccc(F)cc1)c1ccc([N+](=O)[O-])s1` [Compound 6-134, N-(1-(4-fluorophenyl)-6-(6-(2-hydroxyethoxy)pyridin-3-yl)-1H-pyrazolo[3,4,d]pyrimidin-4-yl)-5-nitrothiophene-2-carboxamide] gave an LC50 (Table 6, MTS) of 220 nM.

Compound `C=CC(=O)N1CCC(c2nc(NC(=O)c3ccc([N+](=O)[O-])s3)c3cnn(-c4ccccc4)c3n2)CC1` [Compound 5-2, N-(6-(1-acryloylpiperidin-4-yl)-1-phenyl-1H-pyrazolo[3,4-d]pyrimidin-4-yl)-5-nitrothiophene-2-carboxamide] has an LC50 (Table 5, MTS) of 2470 nM.

`C[C@@H]1C[C@@H](n2ncc3c(NC(=O)c4ccc([N+](=O)[O-])s4)nc(-c4ccc(Cl)cc4)nc32)CC(C)(C)C1` [Compound 8-15, N-(6-(4-chlorophenyl)-1-((1R,5S)-3,3,5-trimethylcyclohexyl)-1H-pyrazolo[3,4-d]pyrimidin-4-yl)-5-nitrothiophene-2-carboxamide] was tested, and the LC50 (Table 8, MTS) was 1270 nM.

For `O=C(Nc1nc(-c2ccc(F)cc2)nc2c(-c3cccc(F)c3)csc12)c1ccc([N+](=O)[O-])s1` [Compound 4-18, N-(7-(3-fluorophenyl)-2-(4-fluorophenyl)thieno[3,2-d]pyrimidin-4-yl)-5-nitrothiophene-2-carboxamide], the LC50 (Table 4, MTS) was 490 nM.

Work on `Cn1ncc2c(NC(=O)c3ccc([N+](=O)[O-])s3)nc(C#Cc3ccc(C(F)(F)F)cc3)nc21` [Compound 1-13, N-(1-methyl-6-((4-(trifluoromethyl)phenyl)ethynyl)-1H-pyrazolo[3,4-d]pyrimidin-4-yl)-5-nitrothiophene-2-carboxamide] yielded an LC50 (Table 1, MTS) of 2030 nM.

`O=C(Nc1nc(-c2ccc(C(F)(F)F)cc2C(F)(F)F)nc2c1cnn2-c1cccc(Cl)c1)c1ccc([N+](=O)[O-])s1` [Compound 6-42] was tested, and the LC50 (Table 6, MTS) was 760 nM.

With `CN(C)c1ccc(-c2nc(NC(=O)c3ccc([N+](=O)[O-])s3)c3cnn(C)c3n2)cc1` [Compound 1-10, N-(6-(4-(dimethylamino)phenyl)-1-methyl-1H-pyrazolo[3,4-d]pyrimidin-4-yl)-5-nitrothiophene-2-carboxamide] the LC50 (Table 1, MTS) was > 5000 nM.

With `O=C(Nc1nc(-c2cc(C(F)(F)F)ccc2F)nc2c1cnn2-c1ccccc1)c1ccc([N+](=O)[O-])s1` [Compound 5-50, N-(6-(2-fluoro-5-(trifluoromethyl)phenyl)-1-phenyl-1H-pyrazolo[3,4-d]pyrimidin-4-yl)-5-nitrothiophene-2-carboxamide] the LC50 (Table 5, MTS) was 350 nM.
